Consider two compounds from paper PMC8217011, “Natural brominated phenoxyphenols kill persistent and biofilm-incorporated cells of MRSA and other pathogenic bacteria” (Applied Microbiology and Biotechnology, 2020).

Assay [1] deals with preformed biofilms of MRSA Mu50. Nature of the assay: Antibiofilm activity assay, viability by Resazurin reduction. The settings on record: preformed 24 h biofilms. The assay is classed as cell-based, Staphylococcus aureus. The protocol: Sterile flat-bottom 96-well polystyrene plates were used for the assay. Some S. aureus colonies were picked from an MHA plate and resuspend in MHB + 10% glucose, and cell density was adjusted to 10^8 cells per mL. One hundred microlitres of cell suspension was added to each well, and the plate was incubated statically for 24 h to induce growth and maturation of biofilms. After 24 h, the wells were washed three times with PBS to remove planktonic cells, and compounds were added to the wells to check for antibiofilm activity. To check for inhibition of biofilm formation, compounds were added immediately after adding of cells to the wells in sublethal concentrations. Lysostaphin, moxifloxacin and DMSO served as positive and negative controls, respectively.
Viability was measured as described above utilizing the Resazurin reduction assay. Biofilm formation was measured using crystal violet staining as described elsewhere (Christensen et al. [1985]; Stepanovic et al. [2007]). Briefly, biofilms were washed three times with PBS and allowed to air dry before 0.1% (v/v) crystal violet solution (Waldeck GmbH & Co., Münster, Germany) was added to each well. The biofilms were stained for 15 min at room temperature (RT). […] Finally, 100 μL was transferred to a fresh 96-well plate to measure absorption at 600 nm with a plate reader.
A general note: Alamar Blue is a resazurin reagent that responds to reducing activity.

For assay [2], the system named is S. aureus mutant M3 (parental strain ATCC 25923). Nature of the assay: MIC of spontaneously resistant mutant. The class given is cell-based. The conditions noted are these: Staphylococcus aureus, ATCC25923. The protocol:
(§1) The minimal inhibitory concentration (MIC) has been determined according to the CSLI guidelines (CLSI [2012]). Briefly, in a sterile polystyrene U-bottom 96-well plate, a 2-fold serial dilution ranging from 100 to 0.78 μM of testing compounds has been prepared in 50 μL MHB. A freshly inoculated S. aureus culture was grown until OD600 nm of approx. 0.6 and diluted to 10^6 CFU/mL in MHB. Finally, 50 μL of the latter cell suspension was added to each well and then incubated statically for 18–24 h at 37 °C. MIC was determined using BacTiterGlo ATP assay (Promega, Madison, WI, USA) and Tecan Infinite F200 Pro (Tecan, Männedorf, Switzerland). Moxifloxacin and DMSO were used as positive and negative control, respectively. Sublethal concentrations of colistin (0.1 μM) were used in some experiments to increase the permeability of the gram-negative cell envelope for compound testing. For E. cloacae, a broth microdilution assay was performed using a serial 2-fold dilution in 96-well flat-bottomed plates (Falcon, BD Bioscience, Heidelberg) of both PPs in broth LB medium (Roth, Karlsruhe) at a concentration range of 50–0.024 μM.
(§2) Spontaneous resistant mutants have been generated with 2-bromo-PP and 3-bromo-PP to further investigate the mechanism of antibacterial action and resistance. Since isolation of spontaneous resistant mutants in one step was not successful on solid media containing 2-bromo-PP or 3-bromo-PP (i.e. resistance frequency < 10^−7 at 5-fold MIC), enrichment was done by passaging bacteria daily in liquid media containing increasing sublethal concentrations of PPs. […] Moreover, we observed cross-resistance between PPs since 2-bromo-PP-resistant mutants were also resistant against 3-bromo-PP and vice versa (Fig. 4a; Table 2).

Assay [3] concerns S. aureus mutant M2 (parental strain ATCC 25923). The assay is described as follows: MIC of spontaneously resistant mutant. The assay is classed as cell-based. The conditions noted are these: Staphylococcus aureus, ATCC25923. As to the method:
as §1, §2

The test system of assay [4] is S. aureus mutant M6 (parental strain Mu50). The assay is described as follows: MIC of spontaneously resistant mutant. The settings on record: Staphylococcus aureus. The assay is classed as cell-based. The protocol:
as §1, §2

Assay [5] has as its system S. aureus mutant M5 (parental strain Mu50). Nature of the assay: MIC of spontaneously resistant mutant. The class given is cell-based. The settings on record: Staphylococcus aureus. As to the method: as §1, §2
The subject of the next assay is A. baumannii ATCC 747. Nature of the assay: Killing kinetics, replicating cells. The class given is cell-based. The conditions noted are these: 2-bromo-PP 3.125 µM, 3-bromo-PP 6.25 µM; multidrug-resistant Acinetobacter baumannii as worded. The protocol: 39 Figure S2 – Bactericidal effects of 2-bromo-PP and 3-bromo-PP against replicating
40 cells of A. baumannii ATCC 747. Colistin was used as positive control (3.125 µM). 2-
41 bromo-PP and 3-bromo-PP were used at concentrations of 3.125 µM and 6.25 µM,
42 respectively. The limit of detection was 500 CFU/mL.
(1 picture or pasted object on this page, not shown here)

Structures are written as SMILES. “And” between values parts separate entries of the source, which are not always exact repeats. Identical values can stand only once.

For orientation: MIC90 means an inhibitory concentration at the 90% level, which refers to growth in some studies and to a panel of isolates in others. Regarding `Oc1c(Br)cc(Br)cc1Oc1ccc(Br)cc1Br` [2-bromo-PP, 4,6-dibromo-2-(2′,4′-dibromophenoxy)phenol], the “concentration inhibiting viability of cells in biofilms (maximal effect)” value in assay [1] was determined as 100 µM. The MIC90 was 0.78 µM and 0.39 µg/mL in assay [2]; 1.56 µM and 0.78 µg/mL in assay [3]; 0.78 µM and 0.39 µg/mL in assay [4]; 1.56 µM and 0.78 µg/mL in assay [5]. Besides, the “bactericidal effect against replicating cells” value in the assay on A. baumannii ATCC 747 is on record as “comparable bactericidal effect”.
On to `Oc1c(Br)cc(Br)c(Br)c1Oc1ccc(Br)cc1Br` [3-bromo-PP, 3,4,6-tribromo-2-(2′,4′-dibromophenoxy)phenol], for which the “concentration inhibiting viability of cells in biofilms (maximal effect)” value in assay [1] worked out at 12.5 µM. The MIC90 is 6.25 µM and 3.63 µg/mL in assay [2]; 3.12 µM and 1.81 µg/mL in assay [3]; 3.12 µM and 1.81 µg/mL in assay [4]; 3.12 µM and 1.81 µg/mL in assay [5]. For the same compound, in the assay with A. baumannii ATCC 747, the “bactericidal effect against replicating cells” value is “comparable bactericidal effect”.
